From patent US10106684B2, “Method for making Schiff base” (KING FAHD UNIVERSITY OF PETROLEUM AND MINERALS, priority 2016, dated 2018)

Experiment: Fluorescence titration of compound 1 with Cu^2+ (Stern-Volmer plot, detection limit)
Format: binding
Procedure: All of the absorption and emission studies were carried out in mixed aqueous solutions of water and methanol (4:1) containing HEPES buffer (10 mM, pH 7.4) at a concentration of 20 μM and 0.2 μM respectively. Emission studies were carried out by addition of 10 equiv of various biologically and non-biologically relevant metal cations to an aqueous-MeOH (4:1) solution of compound 1 at a concentration level of 0.2 μM and their complexation abilities were studies by fluorescence. […] Importantly, none of the other cations induced any such distinct emission shift or quenching (FIG. 7). […] Fluorescence titration of compound 1 with Cu^2+ was carried out in aqueous MeOH (4:1) solution at a concentration level of 0.2 μM. The addition of Cu^2+ to the solution of compound 1 caused a complete quenching of the fluorescent emission and the peak at 525 nm (Φ=0.32) is “switched off” when excited at 502 nm (FIG. 9). […]
Thus, it can be assumed that the quenching of the fluorescence of compound 1 by Cu^2+ ion is a static quenching mode due to the formation of a non-fluorescent complex in the ground state. […] From the Stern-Volmer linear plot (FIG. 14) the binding constant of compound 1 with Cu^2+ was calculated to be 1.0×10^7 L·mol^−1 (error limits≤10%).

binding constant with Cu^2+ from Stern-Volmer linear plot (H2O:MeOH (4:1), HEPES 10 mM, pH 7.4, λex=502 nm, error limits≤10%): 1e+07 L/mol
Structure (SMILES): Cn1ccnc1/C=N/N1C(=O)c2ccccc2C12c1ccc(O)cc1Oc1cc(O)ccc12 [compound 1, Fluorescein-N-methylimidazole conjugate]
effect of Cu^2+ on fluorescence emission at 525 nm (0.2 μM compound, excitation 502 nm): completely quenched
